The target of this assay is recombinant SARS-CoV-2 Mpro (Severe acute respiratory syndrome coronavirus 2, UniProt P0DTD1). Put plainly: SARS-CoV-2 Mpro inhibition assay (FRET-based proteolytic activity assay). Type of assay: biochemical. Conditions: for Ki: substrate concentration-independent inhibition constant; for inhibitory activity in the in vitro test: at concentrations below 125 μM.
The mark [1] stands for this setting: Ki, 0.2 μM enzyme, 20 μM substrate, compound 125 to 0 μM, 2.5% DMSO.
Setting [2] is: 0.2 μM enzyme, 20 μM substrate, compound 125 to 0 μM, 2.5% DMSO, read-out: IC50.
Where [3] appears, read: 0.2 μM enzyme, 20 μM substrate, compound 125 to 0 μM, 2.5% DMSO, read-out: Ki.

“And” between values parts separate entries of the source, which are not always exact repeats. Equal values may be shown once. Read-outs that look alike come from different tables or passages of the source.

The text below walks through data of paper PMC9931176, “Discovery of Diverse Natural Products as Inhibitors of SARS-CoV-2 M^pro Protease through Virtual Screening” (Journal of Chemical Information and Modeling, 2021).

The term IC50 denotes the concentration that gives 50% inhibition. For orientation: Ki means a measure of affinity in units of concentration, obtained from inhibition or displacement. As for `O=C1c2c(O)cccc2C([C@@H]2O[C@H](CO)[C@@H](O)[C@H](O)[C@H]2O)c2cc(CO)cc(O)c21` (some centres unmarked) [aloin], the IC50 was found to be 96 µM. Further, the Ki under setting [1] is 82 µM and 34 µM.
`O=c1cc(-c2ccc(O)c(-c3c(O)cc(O)c4c(=O)cc(-c5ccc(O)cc5)oc34)c2)oc2cc(O)cc(O)c12` [amentoflavone]: the IC50 turned out to be 28 µM. Also, the Ki under setting [1] stood at 10 µM.
`O=C(O[C@@H]1O[C@@H]2COC(=O)c3cc(O)c(O)c(O)c3-c3c(cc(O)c(O)c3O)C(=O)O[C@H]([C@H]1O)[C@@H]2O)c1cc(O)c(O)c(O)c1` [corilagin]: the IC50 was more than 125 µM. Further, the Ki under setting [1] is more than 125 µM.
`COc1ccc(-c2cc(=O)c3c(O)cc(O[C@@H]4O[C@H](CO[C@@H]5O[C@@H](C)[C@H](O)[C@@H](O)[C@H]5O)[C@@H](O)[C@H](O)[C@H]4O)cc3o2)cc1` [linarin]: the IC50 is more than 125 µM and the “inhibitory activity in the in vitro test” value is recorded as “lack of activity”. Under setting [1], the Ki is more than 125 µM.
On to `O=c1cc(-c2ccc(O)c(O)c2)oc2cc(O[C@@H]3O[C@H](CO)[C@@H](O)[C@H](O)[C@H]3O)cc(O)c12` [luteoloside], for which the IC50 is more than 125 µM. Further, under setting [1], the Ki is more than 125 µM.
Take `C[C@@H]1O[C@@H](OC[C@H]2O[C@@H](Oc3cc(O)c4c(c3)O[C@H](c3ccc(O)cc3)CC4=O)[C@H](O)[C@@H](O)[C@@H]2O)[C@H](O)[C@H](O)[C@H]1O` [narirutin]: the half-inhibitory concentration (IC50) was more than 125 µM. Also, the Ki under setting [1] was more than 125 µM.
Consider `C[C@@H]1O[C@@H](O[C@H]2[C@H](Oc3cc(O)c4c(=O)cc(-c5ccc(O)cc5)oc4c3)O[C@H](CO)[C@@H](O)[C@@H]2O)[C@H](O)[C@H](O)[C@H]1O` [rhoifolin], for which the IC50 under setting [2] turned out to be 230 µM. Also, under setting [3], the Ki was 82 µM.
For the compound `CC1OC(OC2C(c3c(O)cc(O)c4c(=O)cc(-c5ccc(O)cc5)oc34)OC(CO)C(O)C2O)C(O)C(O)C1O` (centres unmarked) [vitexin-2-O-rhamnoside, vitexin-2-O-rhaMnoside], the IC50 came to 65 µM. Besides, the Ki under setting [1] was determined as 23 µM.
Turning to `CC1CCC2(C(=O)OC3OC(CO)C(O)C(O)C3O)CCC3(C)C(=CCC4C5(C)CCC(OC6OCC(O)C(O)C6O)C(C)(C)C5CCC43C)C2C1(C)O` (centres unmarked) [ziyu-glycoside I], the IC50 was more than 125 µM and the “inhibitory activity in the in vitro test” value is “nonactive”. The Ki under setting [1] is more than 125 µM.
As for proanthocyanidins, the “inhibitory activity in the in vitro test” value is “nonactive”. Further, the IC50 under setting [2] is more than 125 µM. The inhibitory constant (Ki) under setting [3] is more than 125 µM.
